Assay results published in PMC9229294, “Pyridazinones and Structurally Related Derivatives with Anti-Inflammatory Activity” (Molecules, 2022).
Read-outs that look alike come from different tables or passages of the source.

What was measured:
[1] = biological target: T1, FPR1 (Homo sapiens, UniProt P21462); experiment: Ca2+ mobilization in FPR1-transfected HL-60 cells (agonist activity); type: cell-based; settings: reported here for the first time (Suppl.)
T1 construct: expressed in transfected cells; host or cells: HL-60 cells (FPR1-HL60)
T1 sequence (P21462 1-350): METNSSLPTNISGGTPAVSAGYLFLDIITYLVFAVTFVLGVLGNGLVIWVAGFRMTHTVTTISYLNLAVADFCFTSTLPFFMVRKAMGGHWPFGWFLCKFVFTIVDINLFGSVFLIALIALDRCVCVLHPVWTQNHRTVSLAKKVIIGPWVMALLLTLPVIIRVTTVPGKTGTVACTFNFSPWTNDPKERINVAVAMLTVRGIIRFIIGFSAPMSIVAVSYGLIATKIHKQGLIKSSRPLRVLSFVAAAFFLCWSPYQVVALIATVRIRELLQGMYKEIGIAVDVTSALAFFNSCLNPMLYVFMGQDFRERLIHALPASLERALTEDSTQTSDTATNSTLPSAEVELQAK
Experimental: (§1) Changes in the intracellular Ca^2+ [Ca^2+]i were measured with a FlexStation II scanning fluorometer (Molecular Devices). The cells, which were suspended in Hank’s balanced salt solution without Ca^2+ and Mg^2+ but with 10 mM HEPES (HBSS^−), were loaded with 1.25 μg/mL Fluo-4 AM dye and incubated for 30 min in the dark at 37 °C. After the dye loading, the cells were washed with HBSS^− containing 10 mM HEPES, resuspended in HBSS^+ containing Ca^2+, Mg^2+, and 10 mM HEPES (HBSS^+), and aliquoted into the wells of black microtiter plates (2 × 10^5 cells/well). […] The maximum change in the fluorescence during the first 3 min, expressed in arbitrary units over the baseline, was used to determine a response. […] A curve fitting (5–6 points) and a calculation of median effective inhibitory concentrations (IC50) were performed by nonlinear regression analysis of the dose–response curves generated using Prism 8 (GraphPad Software, Inc., San Diego, CA, USA).

[2] = biological target: T2, FPR2 (Homo sapiens, UniProt P25090); experiment: Ca2+ mobilization in FPR2-transfected HL-60 cells (agonist activity); type: cell-based; settings: reported here for the first time (Suppl.)
T2 construct: expressed in transfected cells; host or cells: HL-60 cells (FPR2-HL60)
T2 sequence (P25090 1-351): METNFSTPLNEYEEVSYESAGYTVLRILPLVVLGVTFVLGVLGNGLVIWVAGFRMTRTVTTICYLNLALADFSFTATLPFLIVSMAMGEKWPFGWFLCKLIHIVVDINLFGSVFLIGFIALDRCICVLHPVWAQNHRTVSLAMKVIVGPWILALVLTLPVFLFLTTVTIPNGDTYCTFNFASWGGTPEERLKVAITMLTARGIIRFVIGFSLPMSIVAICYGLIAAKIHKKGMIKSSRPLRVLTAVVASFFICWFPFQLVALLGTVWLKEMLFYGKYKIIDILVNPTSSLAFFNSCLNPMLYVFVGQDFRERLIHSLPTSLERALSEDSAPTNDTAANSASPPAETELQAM
Experimental: as §1

[3] = tested on: rats with CFA-induced inflammatory arthritis; design: method as in PMID 32388428; settings: cited from earlier work
[4] = tested on: LPS-induced NF-κB activity in THP1-Blue cells; experiment: Inhibition of LPS-induced NF-κB transcriptional activity, alkaline phosphatase reporter, THP1-Blue cells; type: cell-based, human; settings: for IC50: LPS-induced NF-κB activity, human THP1-Blue cells, N.A. = no activity at 50 µM; for Inhibition of LPS-induced NF-κB activity (in words): THP1-Blue cells, 250 ng/mL LPS, 24 h; for Observed class for inhibition of NF-κB activity: experimentally observed, Active or N.A.
Experimental: (§2) Our studies included 175 compounds that were previously synthesized and characterized at NEUROFARBA, Pharmaceutical and Nutraceutical Section, University of Florence, Italy. We previously evaluated the FPR1/FPR2 agonist activity of these compounds by evaluating their ability to induce Ca^2+ mobilization in FPR-transfected HL60 cells and human neutrophils. […] All test compounds were dissolved in DMSO at stock concentrations of 10 mM and stored at −20 °C. For primary screening assays (analysis of NF-κB activation, IL-6 production, and cytotoxicity), the following final concentrations of the compounds were used: 3.125, 6.25, 12.5, 25, and 50 µM; the final concentration of DMSO was 1% in all samples.
The activation of NF-κB was measured using an alkaline phosphatase reporter assay in human monocytic THP1-Blue cells stably transfected with a secreted embryonic alkaline phosphatase gene that is under the control of a promoter inducible by the NF-κB. The THP1-Blue cells (2 × 10^5 cells/well) were pretreated with the test compound or DMSO for 30 min, followed by an addition of 250 ng/mL LPS for 24 h. Alkaline phosphatase activity was determined in cell supernatants using a QUANTI-Blue mix (InvivoGen) and measured at 655 nm and compared with positive control samples (LPS).

[5] = Cytotoxicity, CellTiter-Glo, THP1-Blue cells; type: cell-based, human; settings: human, THP1-Blue cells
Experimental: as §2
(§3) The cytotoxicity was analyzed with a CellTiter-Glo Luminescent Cell Viability Assay Kit from Promega (Madison, WI, USA), according to the manufacturer’s protocol. The luminescent ATP assays are based on a luciferase enzymatic reaction which uses ATP from viable cells to generate photons. For this assay, the cells were incubated with the compounds under investigation for 24 h. After treatment, the cells were equilibrated to room temperature for 30 min, luciferase + luciferin substrate was added, and the samples were analyzed with a Fluoroscan Ascent FL (Thermo Fisher Scientific, Waltham, MA, USA). The IC50 values were calculated by plotting the percentage inhibition against the logarithm of the inhibitor concentration (at least five points).

[6] = biological target: T2, FPR2; settings: FPR2-transfected HL-60 cells, read-out: Ca2+ Mobilization FPR2 EC50 in HL-60 Cells, cited from earlier work
[7] = tested on: LPS-induced IL-6 production in MonoMac-6 cells; experiment: Inhibition of LPS-induced IL-6 production in MonoMac-6 cells (ELISA); type: cell-based, human; settings: for IC50: Homo sapiens; for Inhibition of LPS-induced IL-6 production (in words): MonoMac-6 cells, 250 ng/mL LPS, 24 h
Experimental: as §2
A human IL-6 ELISA kit (BD Biosciences, San Jose, CA, USA) was used to measure IL-6 production. […] The cells were pretreated with the test compound or DMSO for 30 min, followed by addition of 250 ng/mL LPS for 24 h. The IC50 values for IL-6 production were calculated by plotting the percentage inhibition against the logarithm of the inhibitor concentration (at least five points).

[8] = biological target: T1, FPR1; settings: FPR1-transfected HL-60 cells, read-out: Ca2+ Mobilization FPR1 EC50 in HL-60 Cells, cited from earlier work
[9] = Cytotoxicity, CellTiter-Glo, MonoMac-6 cells; type: cell-based, human; settings: human, MonoMac-6 cells
Experimental: as §2, §3

[10] = tested on: THP1-Blue cells; experiment: Cytotoxicity, CellTiter-Glo, THP1-Blue cells; type: cell-based, human; settings: for Cytotoxicity in THP1-Blue Cells (FPR peptide agonists): peptides tested at 5 nM, N.T. = no cytotoxicity
Experimental: as §2, §3

[11] = N.T. = no cytotoxicity at 50 µM, read-out: Cytotoxicity IC50 in THP1-Blue Cells
[12] = Table 3, as reported previously (see Table 1)
[13] = MONO-MAC-6, read-out: Inhibition of IL-6 Production IC50 in MonoMac-6 Cells
[14] = MONO-MAC-6, 24 h, read-out: IC50, LPS-induced IL-6 production

| SMILES | IC50 ([4]; Homo sapiens) [µM] | IC50 [7, 13] [µM] | Observed class for inhibition of NF-κB activity [4] | IC50 at 24 h [5, 11] [µM] | EC50 ([6]; agonist activity from Table 1) [µM] | EC50 [6, 12] [µM] | EC50 [8, 12] [µM] | IC50 at 24 h [9] [µM] | EC50 ([8]; agonist activity from Table 1) [µM] | further results |
| --- | --- | --- | --- | --- | --- | --- | --- | --- | --- | --- |
| Cc1cc(Cc2ccc(C(=O)Nc3ccc(Br)cc3)cc2)c(=O)n(CC(=O)Nc2ccc(Br)cc2)n1 [Compound 61] |  |  |  |  |  |  |  |  |  | EC50 [1]: > 50 µM; EC50 [2]: > 50 µM |
| COc1cccc(Cc2c(C)c(C)nn(CC(=O)Nc3ccc(Br)cc3)c2=O)c1 [Compound 69] | 34.5 ± 2.6 |  | Active | > 50 |  |  |  |  |  | Pain hypersensitivity [3]: reduce pain hypersensitivity; Inhibition of LPS-induced NF-κB activity (in words) [4]: inhibited |
| COc1cccc(Nc2c(C(C)=O)c(C)nn(CC(=O)Nc3ccc(Br)cc3)c2=O)c1 [Compound 73] |  |  |  |  |  |  |  |  |  | Pain hypersensitivity [3]: reduce pain hypersensitivity; Inhibition of LPS-induced NF-κB activity (in words) [4]: inactive |
| Nc1cc(-c2ccncc2)cn(CC(=O)Nc2ccc(Br)cc2)c1=O [Compound 139] |  |  |  |  |  |  |  |  |  | EC50 [1]: > 50 µM; EC50 [2]: > 50 µM |
| COc1cccc(-n2ccc(=O)n(CC(=O)Nc3ccc(Br)cc3)c2=O)c1 [Compound 150] | 21.4 ± 3.5 | 4 ± 1.2 | Active | > 50 | 3.6 |  | 4.3 | > 50 |  | IC50 [7, 14]: < 10 µM |
| CCCn1cc(-c2cccc(OC)c2)c(=O)n(CC(=O)Nc2ccc(Br)cc2)c1=O [Compound 154] | 25.6 ± 2.3 | 2.6 ± 0.3 | Active | > 50 | 2.4 |  |  | > 50 | 3.3 |  |
| COc1cccc(Nc2c(C)c(-c3ccccc3)nn2CC(=O)Nc2ccc(Br)cc2)c1 [Compound 158] | 8.8 ± 1.1 |  | Active | 22.4 ± 5.2 | > 50 |  |  |  | > 50 | IC50 at 24 h ([5]; 24 h, read-out: Cytotoxicity IC50): 22 to 26 µM; Cytotoxicity in THP1-Blue cells (in words) ([10]; 24 h): cytotoxic |
| CSCC[C@H](NC(=O)[C@@H](NC(=O)[C@H](CCSC)NC(=O)[C@H](Cc1ccc(O)cc1)NC(=O)[C@H](CCCCN)NC(=O)[C@@H](N)Cc1c[nH]c2ccccc12)C(C)C)C(=O)O [WKYMVM, Trp-Lys-Tyr-Met-Val-Met, reference compound] |  |  |  |  |  |  |  |  |  | Cytotoxicity in THP1-Blue Cells (FPR peptide agonists) ([10]; THP1-Blue cells): N.T. (No cytotoxicity was observed at the highest concentration tested (50 µM)) |
| CSCC[C@H](NC=O)C(=O)N[C@@H](CC(C)C)C(=O)N[C@@H](Cc1ccccc1)C(=O)O [f MLF] |  |  |  |  |  |  |  |  |  | Cytotoxicity in THP1-Blue Cells (FPR peptide agonists) ([10]; THP1-Blue cells): N.T. (No cytotoxicity was observed at the highest concentration tested (50 µM)) |

More lines, main results first:

| IC50 ([4]; Homo sapiens) [µM] | IC50 [7, 13] [µM] | SMILES | Observed class for inhibition of NF-κB activity [4] | IC50 at 24 h [5, 11] [µM] | EC50 ([6]; agonist activity from Table 1) [µM] | EC50 [6, 12] [µM] | EC50 [8, 12] [µM] | IC50 at 24 h [9] [µM] | EC50 ([8]; agonist activity from Table 1) [µM] | further results |
| --- | --- | --- | --- | --- | --- | --- | --- | --- | --- | --- |
| 0.5 ± 0.1 | 2 ± 0.3 | COc1cccc(Cc2c(-c3ccccc3)c(C)nn(CC(=O)Nc3ccc(Br)cc3)c2=O)c1 [Compound 71, N-(4-bromophenyl)-2-[5-(3-methoxybenzyl)-3-methyl-6-oxo-4-phenylpyridazin-1(6H)-yl]-acetamide] | Active | > 50 | > 50 | > 50 | 2.2 | > 50 |  | Inhibition of LPS-induced IL-6 production (in words) [7]: inhibited; Pain hypersensitivity [3]: reduce pain hypersensitivity; Effect of blocking FPR1 (Boc-MLF) on inhibitor activity on LPS-induced NF-κB activation ([4]; 25 μM Boc-MLF 15 min, then 5 µM compound, LPS-treated THP1 cells): no effect; Inhibition of LPS-induced NF-κB activity (in words) [4]: inhibited |
| 10.6 ± 2.3 | 5.6 ± 0.3 | CCC[C@H](C(=O)Nc1ccc(Br)cc1)n1nc(C)cc(Cc2cccc(OC)c2)c1=O [Compound 98] |  | > 50 | 0.84 | 0.84 | 3 | > 50 | 3 |  |
| 22.1 ± 1.6 | 19 ± 3.1 | CC[C@](C)(C(=O)Nc1ccc(Br)cc1)n1nc(C)cc(Cc2cccc(OC)c2)c1=O [Compound 102] |  | > 50 | 13.7 | 13.7 | 4.5 | > 50 | 4.5 |  |
| 16.6 ± 0.6 | 7.3 ± 1.2 | CC[C@@](C)(C(=O)Nc1ccc(Br)cc1)n1nc(C)cc(Cc2cccc(OC)c2)c1=O [Compound 103] |  | > 50 | > 50 | > 50 | 7 | > 50 | 7 |  |
|  | 7.2 ± 0.03 | CC1CC(c2ccccc2)=NN(CC(=O)Nc2ccc(Br)cc2)C1=O (stereo not drawn) [Compound 125] |  |  | 10 | 10 | 24.4 | > 50 | 24.4 | IC50 [4]: 22.4 ± 0.7 µM; IC50 ([10]; THP1-Blue cells, N.T. = no cytotoxicity at 50 µM): > 50 µM |
| 20.8 ± 0.5 | 10.7 ± 0.1 | O=C(Cn1c(=O)ccn(-c2ccccc2)c1=O)Nc1ccc(Br)cc1 [Compound 153] | Active | > 50 |  | 8.9 |  | > 50 | 12.5 | IC50 [7, 14]: < 10 µM |
| 19.2 ± 0.1 | 3.2 ± 0.4 | O=C(Cn1c(-c2ccc([N+](=O)[O-])cc2)csc1=O)Nc1ccc(Br)cc1 [Compound 169] | Active | > 50 | > 50 | > 50 | 9.1 | > 50 |  | Inhibition of LPS-induced IL-6 production (in words) [7]: potent IL-6 inhibitors |
